# From patent US10239873B2, “7-azaindole or 4,7-diazaindole derivatives as IKKϵ epsilon and TBK1 inhibitor and pharmaceutical composition comprising same” (GREEN CROSS CORPORATION, priority 2015, dated 2019)
# Biological target: T1, TBK1 (Homo sapiens, UniProt Q9UHD2)
# T1 construct: purchased Promega (Invitrogen is also named in the same bracket) V4158; PR8031B; V3991 (not assigned to the two kinases)
# T1 sequence (Q9UHD2 1-729): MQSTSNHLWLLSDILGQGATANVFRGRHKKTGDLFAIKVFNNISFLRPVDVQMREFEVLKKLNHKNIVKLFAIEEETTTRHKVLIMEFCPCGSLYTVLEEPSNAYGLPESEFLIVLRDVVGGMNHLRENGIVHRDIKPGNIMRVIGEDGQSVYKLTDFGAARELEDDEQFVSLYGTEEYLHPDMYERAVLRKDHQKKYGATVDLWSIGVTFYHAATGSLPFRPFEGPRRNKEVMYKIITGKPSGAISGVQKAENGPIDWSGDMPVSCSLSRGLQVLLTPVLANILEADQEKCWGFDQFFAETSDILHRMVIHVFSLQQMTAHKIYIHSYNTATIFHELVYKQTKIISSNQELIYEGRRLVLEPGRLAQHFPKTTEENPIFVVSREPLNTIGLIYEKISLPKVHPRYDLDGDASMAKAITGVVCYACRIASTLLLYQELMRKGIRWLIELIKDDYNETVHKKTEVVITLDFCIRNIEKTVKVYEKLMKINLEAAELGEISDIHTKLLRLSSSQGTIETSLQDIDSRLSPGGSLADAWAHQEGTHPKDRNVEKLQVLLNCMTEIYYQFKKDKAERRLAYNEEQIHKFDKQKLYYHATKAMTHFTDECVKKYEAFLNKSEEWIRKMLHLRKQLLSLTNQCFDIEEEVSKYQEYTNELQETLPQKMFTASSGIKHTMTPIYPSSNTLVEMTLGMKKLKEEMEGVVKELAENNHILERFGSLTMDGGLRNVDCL
# Experiment: ADP-Glo Kinase Assay, inhibition activity on TBK1
# Type: biochemical
# Outline: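 In 40 mM Tris pH 7.5 with 20 mM MgCl2 and 0.1 mg/mL BSA, each enzyme (IKKε or TBK1 kinase system) was run according to the manufacturer's protocol. ADP formed was detected by ADP-Glo luminescence.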
row,Compound,IC50 [nM]
1,"COc1ccc(-c2cnc3[nH]cc(C4=CCN(C(=O)OC(C)(C)C)CCC4)c3c2)cc1OC [Example 188, tert-Butyl 5-(5-(3,4-dimethoxyphenyl)-1H-pyrrolo[2,3-b]pyridin-3-yl)-2,3,4,7-tetrahydro-1H-azepine-1-carboxylate]",4900
2,"CCCOC(=O)N1CC=C(c2c[nH]c3ncccc23)CC1 [Example 137, Propyl 4-(1H-pyrrolo[2,3-b]pyridin-3-yl)-5,6-dihydropyridine-1(2H)-carboxylate]",440
3,"CN(C(=O)N1CC=C(c2c[nH]c3ncc(-c4ccc(S(N)(=O)=O)cc4)cc23)CC1)C1CCCC1 [Example 219, N-cyclopentyl-N-methyl-4-(5-(4-sulfamoylphenyl)-1H-pyrrolo[2,3-b]pyridin-3-yl)-5,6-dihydropyridine-1(2H)-carboxamide]",> 10000
4,"CC(C)(C)OC(=O)N1CC=C(c2c[nH]c3ncc(-c4ccc5c(c4)OCO5)cc23)CC1 [Example 160, tert-Butyl 4-(5-(benzo[d][1,3]dioxol-5-yl)-1H-pyrrolo[2,3-b]pyridin-3-yl)-5,6-dihydropyridine-1(2H)-carboxylate]",2000
5,"O=C(OC1CCCC1)N1CC=C(c2c[nH]c3ncc(-c4cccc(S(=O)(=O)N5CCOCC5)c4)cc23)CC1 [Example 180, Cyclopentyl 4-(5-(3-(morpholinosulfonyl)phenyl)-1H-pyrrolo[2,3-b]pyridin-3-yl)-5,6-dihydropyridine-1(2H)-carboxylate]",400
6,"CC(C)(C)OC(=O)N1CC=C(c2c[nH]c3ncc(-c4cccc(CN5CCOCC5)c4)cc23)CC1 [Example 156, tert-Butyl 4-(5-(3-(morpholinomethyl)phenyl)-1H-pyrrolo[2,3-b]pyridin-3-yl)-5,6-dihydropyridine-1(2H)-carboxylate]",260
7,"CS(=O)(=O)c1ccc(-c2cnc3[nH]cc(C4=C(F)CN(C(=O)NC5CCCC5)CC4)c3c2)cc1 [Example 132, N-cyclopentyl-3-fluoro-4-(5-(4-(methylsulfonyl)phenyl)-1H-pyrrolo[2,3-b]pyridin-3-yl)-5,6-dihydropyridine-1(2H)-carboxamide]",250
8,"COc1ccc(-c2cnc3[nH]cc(C4=CCN(C(=O)c5cccs5)CC4)c3c2)cc1F [Example 192, (4-(5-(3-Fluoro-4-methoxyphenyl)-1H-pyrrolo[2,3-b]pyridin-3-yl)-5,6-dihydropyridin-1(2H)-yl)(thiophen-2-yl)methanone]",460
9,"O=C(O)Cc1ccc(-c2c[nH]c3ncc(-c4ccc(CN5CCOCC5)s4)cc23)cc1 [Example 247, 2-(4-(5-(5-(morpholinomethyl)thiophen-2-yl)-1H-pyrrolo[2,3-b]pyridin-3-yl)phenyl)acetic acid]",1300
10,"O=C(OC1CCCCC1)N1CC=C(c2c[nH]c3ncccc23)CC1 [Example 143, Cyclohexyl 4-(1H-pyrrolo[2,3-b]pyridin-3-yl)-5,6-dihydropyridine-1(2H)-carboxylate]",1000
11,"O=C(NC1CCCC1)N1CC=C(c2c[nH]c3ncc(-c4ccc(OCCCN5CCOCC5)cc4)cc23)CC1 [Example 70, N-cyclopentyl-4-(5-(4-(3-morpholinopropoxy)phenyl)-1H-pyrrolo[2,3-b]pyridin-3-yl)-5,6-dihydropyridine-1(2H)-carboxamide]",400

# Now those with a lower IC50, led by results:
row,IC50 [nM],Compound
1,35,"CS(=O)(=O)c1ccc(-c2cnc3[nH]cc(C4=CCN(C(=O)NC5CCOC5)CC4)c3c2)cc1 (stereo not shown) [Example 82, 4-(5-(4-(Methylsulfonyl)phenyl)-1H-pyrrolo[2,3-b]pyridin-3-yl)-N-(tetrahydrofuran-3-yl)-5,6-dihydropyridine-1(2H)-carboxamide]"
2,42,"CC(C)(C)OC(=O)N1CC=C(c2c[nH]c3ncc(-c4cccc(S(N)(=O)=O)c4)cc23)CC1 [Example 151, tert-Butyl 4-(5-(3-sulfamoylphenyl)-1H-pyrrolo[2,3-b]pyridin-3-yl)-5,6-dihydropyridine-1(2H)-carboxylate]"
3,160,"O=C(OC1CCCC1)N1CC=C(c2c[nH]c3ncc(-c4ccc(CN5CCOCC5)s4)cc23)CC1 [Example 186, Cyclopentyl 4-(5-(5-(morpholinomethyl)thiophen-2-yl)-1H-pyrrolo[2,3-b]pyridin-3-yl)-5,6-dihydropyridine-1(2H)-carboxylate]"
4,53,"O=C(NC1CCCC1)N1CC=C(c2c[nH]c3ncc(-c4ccc(C(=O)N5CCOCC5)s4)cc23)CC1 [Example 74, N-cyclopentyl-4-(5-(5-(morpholine-4-carbonyl)thiophen-2-yl)-1H-pyrrolo[2,3-b]pyridin-3-yl)-5,6-dihydropyridine-1(2H)-carboxamide]"
5,21,"COc1ccc(-c2cnc3[nH]cc(C4=CCN(C(=O)NC5CCOC5)CC4)c3c2)cc1OC (stereo not shown) [Example 81, 4-(5-(3,4-Dimethoxyphenyl)-1H-pyrrolo[2,3-b]pyridin-3-yl)-N-(tetrahydrofuran-3-yl)-5,6-dihydropyridine-1(2H)-carboxamide]"
6,15,"NS(=O)(=O)c1cccc(-c2cnc3[nH]cc(C4=CCN(C(=O)c5cccs5)CC4)c3c2)c1 [Example 198, 3-(3-(1-(thiophene-2-carbonyl)-1,2,3,6-tetrahydropyridin-4-yl)-1H-pyrrolo[2,3-b]pyridin-5-yl)benzensulfonamide]"
7,13,"CN1CCN(Cc2ccc(-c3cnc4[nH]cc(C5=CCN(C(=O)NC6CCOC6)CC5)c4c3)s2)CC1 (stereo not shown) [Example 83, 4-(5-(5-((4-Methylpiperazin-1-yl)methyl)thiophen-2-yl)-1H-pyrrolo[2,3-b]pyridin-3-yl)-N-(tetrahydrofuran-3-yl)-5,6-dihydropyridine-1(2H)-carboxamide]"
8,49,"O=C(c1cccs1)N1CC=C(c2c[nH]c3ncc(-c4ccc(CN5CCOCC5)s4)cc23)CC1 [Example 206, (4-(5-(5-(morpholinomethyl)thiophen-2-yl)-1H-pyrrolo[2,3-b]pyridin-3-yl)-5,6-dihydropyridin-1(2H)-yl)(thiophen-2-yl)methanone]"
9,220,"CC1=C(c2c[nH]c3ncc(-c4ccc(CN5CCOCC5)s4)cc23)CCN(C(=O)NC2CCCC2)C1 [Example 131, N-cyclopentyl-3-methyl-4-(5-(5-(morpholinomethyl)thiophen-2-yl)-1H-pyrrolo[2,3-b]pyridin-3-yl)-5,6-dihydropyridine-1(2H)-carboxamide]"
10,230,"O=C(c1cccs1)N1CC=C(c2c[nH]c3ncc(-c4cccc(S(=O)(=O)N5CCOCC5)c4)cc23)CC1 [Example 202, (4-(5-(3-(morpholinosulfonyl)phenyl)-1H-pyrrolo[2,3-b]pyridin-3-yl)-5,6-dihydropyridin-1(2H)-yl)(thiophen-2-yl)methanone]"
11,52,"NS(=O)(=O)c1ccc(-c2cnc3[nH]cc(C4=CCN(C(=O)OC5CCCC5)CC4)c3c2)cc1 [Example 176, Cyclopentyl 4-(5-(4-sulfamoylphenyl)-1H-pyrrolo[2,3-b]pyridin-3-yl)-5,6-dihydropyridine-1(2H)-carboxylate]"
12,45,"CNS(=O)(=O)c1ccc(-c2cnc3[nH]cc(C4=CCN(C(=O)c5cccs5)CC4)c3c2)cc1 [Example 200, N-methyl-4-(3-(1-(thiophene-2-carbonyl)-1,2,3,6-tetrahydropyridin-4-yl)-1H-pyrrolo[2,3-b]pyridin-5-yl)benzensulfonamide]"
13,84,"COc1ccc(-c2cnc3[nH]cc(C4=CCN(C(=O)NC5CCCC5)CC4C)c3c2)cc1OC (stereo not shown) [Example 120, N-cyclopentyl-4-(5-(3,4-dimethoxyphenyl)-1H-pyrrolo[2,3-b]pyridin-3-yl)-5-methyl-5,6-dihydropyridine-1(2H)-carboxamide]"
14,61,"CCS(=O)(=O)c1cccc(-c2cnc3[nH]cc(C4=CCN(C(=O)c5cccs5)CC4)c3c2)c1 [Example 195, (4-(5-(3-(ethylsulfonyl)phenyl)-1H-pyrrolo[2,3-b]pyridin-3-yl)-5,6-dihydropyridin-1(2H)-yl)(thiophen-2-yl)methanone]"
15,40,"O=C(c1cccs1)N1CC=C(c2c[nH]c3ncc(-c4ccc(CN5CCOCC5)s4)nc23)CC1 [Example 233, (4-(2-(5-(morpholinomethyl)thiophen-2-yl)-5H-pyrrolo[2,3-b]pyrazin-7-yl)-5,6-dihydropyridin-1(2H)-yl)(thiophen-2-yl)methanone]"
16,120,"CS(=O)(=O)c1ccc(-c2cnc3[nH]cc(C4=CCN(C(=O)OC5CCCC5)CC4)c3c2)cc1 [Example 173, Cyclopentyl 4-(5-(4-(methylsulfonyl)phenyl)-1H-pyrrolo[2,3-b]pyridin-3-yl)-5,6-dihydropyridine-1(2H)-carboxylate]"
17,5,"CN1CCN(Cc2ccc(-c3cnc4[nH]cc(C5=CCN(C(=O)NC6CCCC6)CC5)c4c3)s2)CC1 [Example 71, N-cyclopentyl-4-(5-(5-((4-methylpiperazin-1-yl)methyl)thiophen-2-yl)-1H-pyrrolo[2,3-b]pyridin-3-yl)-5,6-dihydropyridine-1(2H)-carboxamide]"
